Source: patent US12551447B2, “Combination solid oral dosage forms of gonadotropin-releasing hormone antagonists” (Sumitomo Pharma Co., Ltd., priority 2020, dated 2026)

Assay: BioPharmaceutical Classification System (BCS) solubility and permeability class
Type: physicochemical
Conditions: BCS 4 = poorly soluble and poor permeability
Experimental: The BioPharmaceutical Classification System (BCS) classifies drug substances as to their solubility and permeability. For example, a drug substance is considered highly soluble when the highest dose strength is soluble in ≤250 ml water over a pH range of 1-7, and highly permeable when the extent of absorption in humans is determined to be >90% of an administered dose, in comparison to an intravenous reference dose. A BCS 1 compound is highly soluble and highly permeable, while a BCS 4 compound is poorly soluble and has poor permeability. For BCS 4 compounds, bioavailability and the pharmacokinetic (PK) profile or parameters, such as mean maximum plasma concentration (Cmax), mean time to maximum plasma concentration (Tmax) and mean area under the plasma concentration vs. time curve (AUC) after oral administration, can be positively or negatively impacted by the formulation, the type of the excipients selected and the specific excipients. The safety and efficacy of the fixed combination oral product depends on these PK parameters being in the appropriate range. Compound 1 is a BCS 4 compound and therefore for fixed combination oral products having compound 1, or a corresponding amount of a pharmaceutically acceptable salt thereof, the type and specifics of the excipients must be carefully selected so as to achieve the target pharmacokinetic parameters.

In the case of CONC(=O)Nc1ccc(-c2sc3c(c2CN(C)C)c(=O)n(-c2ccc(OC)nn2)c(=O)n3Cc2c(F)cccc2F)cc1 [Compound 1, N-(4-(1-(2,6-difluorobenzyl)-5-((dimethylamino)methyl)-3-(6-methoxy-3-pyr-idazinyl)-2,4-dioxo-1,2,3,4-tetrahydrothieno[2,3-d]pyrimidin-6-yl)phenyl)-N′-methoxyurea], the BCS class is reported as “BCS 4”.
